Measurements reported in the NIST ThermoML archive (doi:10.1021/je060243s).
Several values for one entry are separate records, joined by “and”; a condition that tells them apart may be missing. Equal entries are not always repeated.

Assay: wn = mass fraction of the nth substance listed
Settings: Liquid, Pulse-echo method, w2 = 0.5

FC(F)C(F)(F)F [pentafluoroethane] + FCF
speed of sound
Settings | 288.2 K | 298.2 K | 308.25 K
1650 kPa | 500.3 m/s | – | –
1680 kPa | – | 440.6 m/s and 440.2 m/s and 440.3 m/s | –
1750 kPa | 501.7 m/s | 441.7 m/s | –
1880 kPa | 503.4 m/s | 444 m/s | –
2010 kPa | 505.1 m/s | 446 m/s | –
2130 kPa | – | 448.2 m/s | –
2170 kPa | – | – | 383.3 m/s and 383.4 m/s
2250 kPa | 508.2 m/s | 450 m/s | 384.9 m/s
2380 kPa | – | – | 387.7 m/s
2510 kPa | 511.3 m/s | 454 m/s | 390.5 m/s
2750 kPa | 514.7 m/s | 457.8 m/s | 395.6 m/s
3010 kPa | 517.7 m/s | 461.7 m/s | 400.6 m/s
3500 kPa | 524 m/s | 469.1 m/s | 409.9 m/s
4000 kPa | 529.7 m/s | 475.9 m/s | 418.9 m/s
4500 kPa | 535.6 m/s | 483 m/s | 427.4 m/s
5000 kPa | 541.1 m/s | 489.9 m/s | 435.6 m/s
6010 kPa | 552 m/s | 502.6 m/s | 450.5 m/s
7010 kPa | 562.3 m/s | 514.4 m/s | 464.7 m/s
8000 kPa | 572.3 m/s | 525.7 m/s | 477.8 m/s
9000 kPa | 582 m/s | 536.4 m/s | 490.2 m/s
10000 kPa | 591.2 m/s | 546.7 m/s | 501.7 m/s
12000 kPa | 608.7 m/s | 566.4 m/s | 523.6 m/s
14000 kPa | 625.1 m/s | 584.5 m/s | 543.5 m/s
16010 kPa | 640.6 m/s | 601.6 m/s and 601.3 m/s | 562.1 m/s
18000 kPa | 655.7 m/s | 617.3 m/s | 579.5 m/s
20000 kPa | 669.7 m/s | 632.4 m/s | 596 m/s
23000 kPa | 689.6 m/s | 653.8 m/s | 619 m/s
26000 kPa | 708.7 m/s | 673.7 m/s | 640 m/s
29010 kPa | 727 m/s | 693 m/s | 660.1 m/s
32000 kPa | 744 m/s | 711.1 m/s | 678.9 m/s
35000 kPa | 760.4 m/s | 728.5 m/s | 697.2 m/s
40000 kPa | 786.1 m/s | 754.9 m/s | –
45000 kPa | 810 m/s | 780.3 m/s | –
50000 kPa | 833 m/s | 803.7 m/s | –
55000 kPa | 854.6 m/s | 826.3 m/s | –
60000 kPa | 875.4 m/s | 847.6 m/s | –
65000 kPa | 895.5 m/s | 868.2 m/s | –

Settings | speed of sound [m/s]
298.25 K | 440.4
